What was measured:
[1] = Dissolution rate of sugar alcohols; format: physicochemical
[2] = Nephelometric determination of free Zn ions in the presence of polyols; format: physicochemical; conditions: 35° C., acetate buffer pH=6.0; for Percentage of free (uncomplexed) ions: of total amount, 26 mg Zn in 50 ml; for Zn ions free in solution: standardized to the same Zn ion concentration (26 mg in 50 ml)
Experimental: 10 ml of zinc gluconate solution (2 g of zinc gluconate and 250 ml of deionized water) are mixed with 10 ml of polyol solution (1.0 g of sugar or sugar alcohol dissolved in 25 ml of deionized water) and 2 ml of acetate buffer (pH=6.0) and thermostatted at 35° C. in a cuvette.
1 molar NaHCO3 solution is subsequently added dropwise in small amounts, and the turbidity is determined using a turbidity photometer.
Isomalt, sucrose, glucose, hard isomalt candies, the zinc gluconate which was used as a source of zinc and two commercial products are compared, the overall amount of Zn ions in each case corresponding to 26 mg in 50 ml of solution.

[3] = Godfrey et al. 1992; Zarembo et al. 1992; U.S. Pat. Nos. 5,409,905 and 5,002,970; cited from earlier work
[4] = test system: Staphylococcus aureus; assay: Growth of Staphylococcus aureus in CASO medium with added sugar alcohol, optical density OD578 versus control; format: cell-based; conditions: 16 h, read-out: growth reduced to
Experimental: Staphylococcus aureus was cultivated at 37° C. in CASO medium to which, in addition to the carbon source glucose (5% strength), isomalt (0.58 M) had been added. The growth of the bacteria cultures in a shaking flask was determined after 16 h by means of the optical density (OD578) and compared with a control (CASO medium without isomalt). It was observed that in all experiments the growth of the cultures which were grown in isomalt was inhibited by more than 50%.

[5] = test system: rhinoviruses; conditions: Merluzzi et al. 1989; cited from earlier work
[6] = test system: colds; conditions: free zinc ions; Mossad et al. 1996, Godfrey et al. 1996; cited from earlier work

With OC[C@@H](O)[C@@H](O)[C@H](O)[C@H](O)CO[C@H]1O[C@H](CO)[C@@H](O)[C@H](O)[C@H]1O [1,1-GPM, 1-O-α-D-glucopyranosyl-D-mannitol] the “dissolution rate compared with 1,6-GPS” value [1] was “considerably lower dissolution rate than 1,6-GPS”.

With O=C[C@H](O)[C@@H](O)[C@H](O)[C@H](O)CO [Glucose] the “Percentage of free (uncomplexed) ions” value [2] was 50% and the “Zn ions free in solution” value [2] was 13.00 mg in 50 ml of solution.

For OC[C@H]1O[C@@](CO)(O[C@H]2O[C@H](CO)[C@@H](O)[C@H](O)[C@H]2O)[C@@H](O)[C@@H]1O [Sucrose], the “Percentage of free (uncomplexed) ions” value [2] was 48% and the “Zn ions free in solution” value [2] was 12.40 mg in 50 ml of solution.

In the case of OC[C@@H](O)[C@@H](O)[C@H](O)[C@H](O)CO [mannitol], the zinc-complexing action [3] is listed as “zinc-complexing action”.

For OC[C@@H](O)[C@@H](O)[C@H](O)[C@@H](O)CO [sorbitol], the activity at 580000 µM [4] is given as roughly 75% and the zinc-complexing action [3] is given as “zinc-complexing action”.

With zinc gluconate [Zn gluconate] the “Percentage of free (uncomplexed) ions” value [2] was 64% and the “Zn ions free in solution” value [2] was 14.62 mg in 50 ml of solution.

For zinc ions, the antiviral effects [5] is listed as “antiviral effects are a direct function of the amount of free Zn^2+ ions” and the “duration and severity of the symptoms of colds” value [6] is listed as “markedly reduces both the duration and the severity of the symptoms of colds”.

— US6139864A, “Compositions for common colds” (Sudzucker Aktiengesellschaft, priority 1998, dated 2000)
